From patent US6998144B2, “Method of improving sweetness delivery of sucralose” (McNeil-PPC, Inc., priority 1998, dated 2006)
Residues, ends and D or L forms follow the SMILES beside them.

How the values were obtained:
[1] = test system: trained evaluators; experiment: Determination of equally sweet levels in bottled water by a panel of six trained evaluators; format: in vivo; details: for equally sweet level: sweetener alone in bottled water
Text: A panel of six trained evaluators determined equally sweet levels of sucralose, sucralose+DHB, aspartame, and aspartame+DHB, all in bottled water. […] Previous evaluations had shown 15 ppm DHB as optimal for taste alteration in sucralose products. Greater than 50 ppm DHB, in pure water solutions, has a slightly sweet taste and contributes to the total taste of the solution.

[2] = test system: trained panelists; experiment: Sweetness time-intensity study of equally sweet solutions, 12 trained panelists; format: in vivo
Protocol: The data in Table 1 (“STIME”) in the Examples below correlate with the curves shown in this Figure. Imax: maximum intensity recorded. Tmax: first time that maximum intensity was recorded. Tend: last time that a non-zero intensity was recorded. Tdec50: last time that an intensity greater than 50% of Imax was recorded (i.e. the time at which the intensity had decreased to 50% of Imax). Tdec10: same as for Tdec50, but at 10% of Imax. Area: area under the curve. Tdecline: time interval from Tmax to Tdec10. The experiments giving rise to the data in this Figure and Table 1 are described in Example 1 below.
The data in Table 2 (“ATIME”) in the Examples below correlate with the curves shown in this Figure. These curve parameters, as shown in the Table, are defined as per those in FIG. 1. The experiments giving rise to the data in this Figure are described in Example 1 below.
For sweetness time-intensity studies, room temperature equally sweet solutions were presented to 12 trained panelists. The panelists had been screened for general sensory acuity and trained in general methods for sweetener assessment as well as time-intensity methods. […]
The data collected by the computer were read every second, for a total of 180 data points per tasting. Mean panelist response was calculated for each time data point. […]

Row | SMILES | DHB level that has a slightly sweet taste and contributes to the total taste ([1]; pure water solutions) | DHB level optimal for taste alteration ([1]; sucralose products, previous evaluations) [ppm] | sweetness delivery profile of aspartame ([2]; effect of DHB on aspartame) | length of time during which sucralose sweetness is perceived ([2]; effect of DHB on sucralose) | equally sweet level [1] [ppm]
1 | O=C(O)c1ccc(O)cc1O [DHB, 2,4-dihydroxybenzoic acid] | Greater than 50 ppm | 15 | does not alter | significantly reduces | –
2 | COC(=O)[C@H](Cc1ccccc1)NC(=O)[C@@H](N)CC(=O)O [Sample 1, N-L-α-aspartyl-L-phenylalanine methyl ester, reference compound] (H-Asp-Phe-OMe) | – | – | – | – | 550
3 | OC[C@H]1O[C@H](O[C@]2(CCl)O[C@H](CCl)[C@@H](O)[C@@H]2O)[C@H](O)[C@@H](O)[C@H]1Cl [Sample 1, 1,6-dichloro-1,6-dideoxy-β-D-fructofuranosyl-4-chloro-4-deoxy-α-D-galactopyranoside, reference compound] | – | – | – | – | 200
